Holding throughout (parameters): scale not given: the % may be the effect or the level left
Experiment [1] concerns the target T1, Inhibitor of nuclear factor kappa-B kinase subunit alpha (Homo sapiens) (UniProt O15111).
T1 sequence (whole entry): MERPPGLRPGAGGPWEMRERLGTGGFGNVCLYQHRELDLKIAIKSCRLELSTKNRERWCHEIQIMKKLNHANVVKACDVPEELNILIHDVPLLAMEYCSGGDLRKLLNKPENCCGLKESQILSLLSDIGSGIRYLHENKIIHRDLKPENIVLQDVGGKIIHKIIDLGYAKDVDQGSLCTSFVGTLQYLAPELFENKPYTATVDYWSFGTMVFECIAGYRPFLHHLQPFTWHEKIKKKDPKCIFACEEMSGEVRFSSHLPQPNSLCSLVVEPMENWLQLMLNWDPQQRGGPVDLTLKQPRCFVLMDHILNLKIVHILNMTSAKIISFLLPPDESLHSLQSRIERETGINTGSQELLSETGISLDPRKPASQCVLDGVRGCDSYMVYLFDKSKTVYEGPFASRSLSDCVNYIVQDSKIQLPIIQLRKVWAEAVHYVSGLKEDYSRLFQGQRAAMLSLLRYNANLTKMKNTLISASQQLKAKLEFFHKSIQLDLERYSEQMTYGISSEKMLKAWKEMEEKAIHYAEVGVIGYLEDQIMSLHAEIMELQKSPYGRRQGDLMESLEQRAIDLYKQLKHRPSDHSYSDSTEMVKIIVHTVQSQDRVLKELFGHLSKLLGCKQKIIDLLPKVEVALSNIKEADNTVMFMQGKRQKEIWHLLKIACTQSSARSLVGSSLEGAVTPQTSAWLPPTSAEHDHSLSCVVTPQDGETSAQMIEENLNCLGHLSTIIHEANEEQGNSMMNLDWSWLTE
Briefly: Inhibition of IKKalpha assessed as activity at 1 uM relative to control.

Experiment [2] addresses Cyclin-dependent kinase 7 (Homo sapiens) (UniProt P50613). The experiment can be described thus: Inhibition of CDK7 assessed as activity at 1 uM relative to control.
Experiment [3] can be described thus: Inhibition of CDC2L2 isoform 1 assessed as activity at 1 uM relative to control.
Experiment [4] in a line: Inhibition of CDC2L1 isoform 4 assessed as activity at 1 uM relative to control.

Chain of Cyclin-dependent kinase 7 (Homo sapiens) (P50613 whole entry, canonical isoform): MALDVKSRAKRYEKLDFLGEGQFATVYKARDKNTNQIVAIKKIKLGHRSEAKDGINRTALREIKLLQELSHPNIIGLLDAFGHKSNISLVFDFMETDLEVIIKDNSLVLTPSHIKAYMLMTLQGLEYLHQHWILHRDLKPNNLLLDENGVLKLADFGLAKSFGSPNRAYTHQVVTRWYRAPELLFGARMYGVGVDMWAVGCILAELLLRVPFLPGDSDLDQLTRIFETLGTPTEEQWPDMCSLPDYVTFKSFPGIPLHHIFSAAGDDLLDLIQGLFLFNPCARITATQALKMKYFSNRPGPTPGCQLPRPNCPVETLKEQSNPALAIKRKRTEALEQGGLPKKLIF

On to `Cc1cnc2c(NCCN)nc3cc(-c4cccc(CO)c4)sc3n12`, for which the Activity in experiment [1] was found to be 4.6%; in experiment [2] it was 0.5%; in experiment [3], 6.3%; in experiment [4] it was 2.1%.
The like results for `Cc1cccc(-c2cc3nc(NCCN)c4ncc(C)n4c3s2)c1` were, in that order, 15%, 58%, 68% and 42%.

The record behind these values is ChEMBL document CHEMBL1649082, “Trends in kinase selectivity: insights for target class-focused library screening” (J Med Chem, 2011).
